In patent US20080113073A1, “Hydroxydeoxybenzoins And The Use Thereof to Mask A Bitter Taste” (SYMRISE GMBH & CO. KG, priority 2005, published 2008):

Key:
[1] = system: bitter impression of a caffeine solution; experiment: Bitter reduction of a caffeine solution, rated by a group of experts (0 not bitter to 10 extremely bitter); format: in vivo; details: for Bitter impression (1-10) with: 500 ppm caffeine plus 100 ppm substance, 95% confidence intervals given as error; for % reduction in the bitter impression: 500 ppm caffeine, 100 ppm substance, calculated from average ratings without/with substance
Description: In order to quantify the reduction in the bitter impression, the bitterness of a caffeine solution comprising 500 ppm and of a sample comprising 500 ppm of caffeine and a variable amount of the compound of the example was determined by a group of experts (rating 0 [not bitter] to 10 [extremely bitter]). The evaluation was carried out by calculating the reduction (in %) in the bitter impression from the average values of the assessments of the caffeine solution or the solutions containing caffeine and compound of the example. 2,4-Dihydroxybenzoic acid (2,4-DHB) was used as comparison in accordance with U.S. Pat. No. 5,643,941.

[2] = system: taste of caffeine; details: in vivo; cited from earlier work
[3] = system: taste; details: studied within the context of various sweeteners; cited from earlier work
[4] = system: sweetness impression of sugared low-fat yoghurt; experiment: Sweetness enhancement in low-fat yoghurt with 5% sugar, coded tasting by 16 testers (scale 0 to 10); format: in vivo
Text: 5% sugar was stirred into a commercially available natural yoghurt (without additives) having a fat content of 0.1% (sample 1). 200 ppm of compound 2 (Example 2), which had previously been dissolved in a minimal amount of ethanol, were additionally incorporated into a sample 2. Samples 1 and 2 were presented in coded form, in a different but predetermined order, to 16 testers for tasting. The testers had to note the sweetness impression on a scale of from 0 (not present) to 10 (extreme sweetness). In addition, the testers were to note other taste impressions.

[5] = system: sweet impression of a sucrose solution; experiment: Enhancement of the sweet impression of a sucrose solution, rated by a group of experts (0 not sweet to 10 extremely sweet); format: in vivo
Description: In order to quantify the enhancement of the sweet impression, the sweetness of a sucrose solution comprising 5% and of a sample comprising 5% sucrose and an amount of compound 2 was determined by a group of experts (rating 0 [not sweet] to 10 [extremely sweet]). The evaluation was carried out by calculating the […] (in %) in the sweet impression from the average values of the assessments of the sucrose solution or of the solution comprising sucrose and compound 2.

Compound: O=C(O)c1ccc(O)cc1O [2,4-DHB, 2,4-Dihydroxybenzoic acid, reference compound]
- Bitter impression (1-10) with [1]: 5.0 ± 1.0
- % reduction in the bitter impression [1]: 3%

Compound: O=C([O-])c1ccc(O)cc1O.[K+] [2,4-Dihydroxybenzoic acid potassium salt]
- ability to suppress the taste of caffeine [2]: not able to suppress the taste of caffeine

Compound: COc1ccc(CC(=O)c2c(O)cc(O)cc2O)cc1O [2-(3-hydroxy-4-methoxyphenyl)-1-(2,4,6-trihydroxyphenyl)ethanone]
- taste of the compound itself [3]: tasteless

Compound: COc1cc(CC(=O)c2c(O)cc(O)cc2O)ccc1O [Compound 1, 2-(4-Hydroxy-3-methoxyphenyl)-1-(2,4,6-trihydroxyphenyl)-ethanone]
- Bitter impression (1-10) with [1]: 3.8 ± 0.9
- % reduction in the bitter impression [1]: 23%

Compound: COc1cc(CC(=O)c2ccc(O)cc2O)ccc1O [Compound 2, 1-(2,4-Dihydroxyphenyl)-2-(4-hydroxy-3-methoxyphenyl)-ethanone]
- number of testers who found the sample with compound sweeter ([4]; of 16 testers, 4 found sample 1 sweeter, 2 found both equally sweet): 10
- further taste impression noted ([4]; sample 2 (200 ppm compound)): sticky
- preference of testers ([4]; sample 2 (200 ppm compound) versus sample 1): preferred to sample 1 by the majority of testers
- enhancement of the sweetness impression ([4]; sample 2 (200 ppm compound) versus sample 1 in yoghurt with 5% sugar): 18%
- average sweetness impression rating (0 to 10) ([4]; sample 2: yoghurt 0.1% fat, 5% sugar, 200 ppm compound, sample 1 without compound rated 4.1): 4.9
- Bitter impression (1-10) with [1]: 4.3 ± 0.8
- % reduction in the bitter impression [1]: 10%
- Sweet impresssion (1-10) with ([5]; 5% sucrose plus 100 ppm substance, standard deviations given as error): 5.9 ± 1.5
- % enhancement of the sweet impression ([5]; 5% sucrose, 100 ppm substance, calculated from average ratings): 18%
